Peptide text beside a SMILES is read from it. * marks the point of attachment. Cbz = O=C(OCc1ccccc1)*
Assays:
[1] = target: T1, BRD4 protein (Homo sapiens, UniProt O60885); assay: BRD4 protein degradation by Western blotting; format: cell-based; settings: 50 μM IU1 with BRD4 PROTAC; 1% SDS lysis buffer or RIPA buffer; FIG. 11
T1 construct: endogenous in cells
Method: (§1) To prepare samples for Western blotting, HeLa and LNCaP cells were washed once with ice-cold PBS (1×) and lysed using RIPA buffer (ROCKLAND, MB-030-050) supplemented with protease inhibitor cocktail (Roche), 1 mM PMSF, and 1 mM DTT, or 1% SDS lysis buffer [1% (w/v) SDS, 10 mM Tris-HCl, 1 mM EDTA, pH 8.0]. All lysates were quantified by BCA protein assay (Thermo Fisher Scientific), and then 15 to 30 μg of each lysate was run by SDS-PAGE. Afterwards, the experiment was performed in the following order: transfer to PVDF membrane, treatment with a blocking solution (5% BSA or 5% non-fat dry milk in 1× TBST), treatment with designated primary antibody, and treatment with HRP-linked secondary antibody. Between treatments, washing was performed several times with excess 1× TBST. Each membrane was image-analyzed and quantified for protein signals using ChemiDoc (iBright750, Invitrogen).
In order to determine whether the USP14 inhibitor of the present disclosure can enhance protein degradation capability for PROTACs other than CDK9 PROTACs, which were confirmed through experiments in Examples 2 and 4, it was confirmed whether the effect of degradation of BRD4 protein by BRD4 PROTAC was enhanced by IU1 treatment. […]

[2] = target: T2, CDK9 protein (Homo sapiens, UniProt P50750); assay: CDK9 protein degradation by Western blotting in HeLa cells; format: cell-based; design: endogenous in cells; host or cells: HeLa (ATCC); settings: for CDK9 protein level when inhibitor is treated together with PROTAC and IU1: proteasome or autophagy inhibitor added to CDK9 PROTAC and IU1, FIG. 4C; for Enhancement of degradation effect of CDK9 PROTAC, comparison with PR-619: PR-619 at different concentrations, FIG. 16
Method: (§2) HeLa cells (cervical cancer cells) and LNCaP cells (prostate cancer cells) that were used for the experiments of the present disclosure were obtained from the American Type Culture Collection (ATCC), and were cultured in Dulbecco's Modified Eagle's Medium (DMEM, 1×) or RPMI-1640 (1×) medium, each containing 10% FBS, 1% penicillin/streptomycin and 1% L-glutamine, in a 37° C., 5% CO2 cell incubator. For experiments with PROTAC and deubiquitinase (DUB) inhibitors such as IU1 and IU1-47, 5×10^5 (HeLa) or 1×10^6 (LNCaP) cells were seeded into each well of a 12-well plate (Corning, #3513) one day before inhibitor treatment and then cultured in an incubator. Twenty-four hours after incubation, each well was replaced with medium containing serial dilutions of the compound and incubated under the same conditions for no more than 24 hours. As for all controls, the same amount of DMSO, which is a vehicle, was used for that of the compound treated with the experimental groups.
as §1
Data obtained through Western blotting were quantified using iBright analysis software, and the levels of all target proteins were normalized with GAPDH. After quantification and normalization, DC50 values of the compounds used in the experiments of the present disclosure were derived through nonlinear regression using Graph Pad Prism software.

[3] = target: T2, CDK9 protein; assay: CDK9 protein degradation by Western blotting in LNCaP cells; format: cell-based; design: endogenous in cells
Method: as §2, with “Twenty-four hours after incubation, each well was replaced with medium containing serial dilutions of the compound and incubated under the same conditions for no more than 24 hours. As for all controls, the same amount of DMSO, which is a vehicle, was used for that of the compound treated with the experimental groups.” left out
To prepare samples for Western blotting, HeLa and LNCaP cells were washed once with ice-cold PBS (1×) and lysed using RIPA buffer (ROCKLAND, MB-030-050) supplemented with protease inhibitor cocktail (Roche), 1 mM PMSF, and 1 mM DTT, or 1% SDS lysis buffer [1% (w/v) SDS, 10 mM Tris-HCl, 1 mM EDTA, pH 8.0]. All lysates were quantified by BCA protein assay (Thermo Fisher Scientific), and then 15 to 30 μg of each lysate was run by SDS-PAGE. […] Each membrane was image-analyzed and quantified for protein signals using ChemiDoc (iBright750, Invitrogen).
Data obtained through Western blotting were quantified using iBright analysis software, and the levels of all target proteins were normalized with GAPDH. […]

[4] = tested on: HeLa cells; settings: FIG. 8
Method: To measure cell viability by treatment with the compound of the present disclosure, HeLa and LNCaP cells were seeded in a 96-well plate (SPL, #33396) at 500 cells/well (HeLa) or 3000 cells/well (LNCaP). The cells were seeded and cultured in an incubator at 37° C. and 5% CO2. Twenty four hours later, the medium was replaced with compound-containing medium and incubated under the same conditions in an incubator for 48 hours. Afterwards, cell viability was measured through luminescence analysis in an Envision microplate reader (Perkin Elmer) using the ATP-lite 1 step assay kit (Perkin Elmer).
The results measured in the experiments to confirm cell viability were initially processed using Excel, and then the IC50 values were derived through nonlinear regression analysis using Prism software.

[5] = target: T3, SHP-2 protein (Homo sapiens, UniProt Q06124); assay: SHP-2 protein degradation by Western blotting in HeLa cells; format: cell-based; settings: IU1 in combination with SHP-2 PROTAC, FIGS. 12A, 12B
T3 construct: endogenous in cells; host or cells: HeLa (ATCC)
T3 sequence (Q06124 1-593): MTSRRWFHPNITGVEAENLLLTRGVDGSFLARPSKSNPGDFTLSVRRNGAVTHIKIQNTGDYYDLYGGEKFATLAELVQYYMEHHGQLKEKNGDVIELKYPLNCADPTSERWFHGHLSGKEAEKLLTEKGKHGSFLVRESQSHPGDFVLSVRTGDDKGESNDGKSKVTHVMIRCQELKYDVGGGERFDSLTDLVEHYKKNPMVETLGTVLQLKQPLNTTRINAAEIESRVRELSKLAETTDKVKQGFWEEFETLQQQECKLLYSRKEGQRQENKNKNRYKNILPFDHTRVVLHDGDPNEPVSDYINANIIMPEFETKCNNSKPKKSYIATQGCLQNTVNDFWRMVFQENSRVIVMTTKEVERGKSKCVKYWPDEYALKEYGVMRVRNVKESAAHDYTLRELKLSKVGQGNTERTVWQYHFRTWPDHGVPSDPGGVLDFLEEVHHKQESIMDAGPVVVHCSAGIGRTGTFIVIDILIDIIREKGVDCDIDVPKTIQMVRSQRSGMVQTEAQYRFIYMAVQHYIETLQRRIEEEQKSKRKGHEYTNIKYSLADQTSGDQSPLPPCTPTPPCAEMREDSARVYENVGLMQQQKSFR
Method: as §1
In addition, for SHP-2 PROTAC, which is another VHL-based PROTAC other than BRD4 PROTAC, it was confirmed whether the degradation effect for SHP-2 protein was enhanced under experimental conditions similar to those in the experiment in FIG. 7.

[6] = tested on: HeLa cells; assay: Cancer cell colony formation assay in HeLa cells; format: cell-based; settings: CDK9 PROTAC 10-100 nM and IU1-47 20 μM in combination; one week; FIG. 19
Method: Afterwards, the medium was replaced with a compound-containing medium, and then the cells were further cultured in the incubator under the same conditions for one week. The cultured cancer cells at the end were stained with 0.25% crystal violet staining solution containing 20% methanol for 1 hour, and then washed with ultrapure distilled water and dried at room temperature for one day. Cell images were captured using a camera or iBright CL750 (Thermo Fisher), the number of colonies was analyzed using iBright analysis software, and the size of colonies was analyzed using ImageJ software.
As another example to confirm the anticancer effect by the degradation of CDK9 protein enhanced by the combined treatment of the IU1-series compound and CDK9 PROTAC, which was confirmed in Examples as described above, different concentrations of CDK9 PROTAC (10, 25 , 50, 75, 100 nM) and IU1-47 (20 μM) compounds were used separately or in combination for treatment, and one week later, the degree of colony formation of HeLa cancer cells by the effect of enhancing CDK9 PROTAC protein degradation capability by IU1-series compound, was confirmed.

[7] = tested on: HeLa cells; assay: Cancer cell migration assay in HeLa cells; format: cell-based; settings: CDK9 PROTAC 40 nM and IU1-47 20 μM in combination; every 12 hours; FIG. 18
Method: Microscopic images were taken using an inverted fluorescence microscope (Olympus) through a 10× magnification lens every 12 hours, and the width of the intercellular region was measured using ImageJ software.
To this end, HeLa cells were treated with CDK9 PROTAC (40 nM) and IU1-47 (20 μM) compounds separately or in combination, and the migration of HeLa cells was confirmed every 12 hours.

T2 sequence (P50750 whole entry): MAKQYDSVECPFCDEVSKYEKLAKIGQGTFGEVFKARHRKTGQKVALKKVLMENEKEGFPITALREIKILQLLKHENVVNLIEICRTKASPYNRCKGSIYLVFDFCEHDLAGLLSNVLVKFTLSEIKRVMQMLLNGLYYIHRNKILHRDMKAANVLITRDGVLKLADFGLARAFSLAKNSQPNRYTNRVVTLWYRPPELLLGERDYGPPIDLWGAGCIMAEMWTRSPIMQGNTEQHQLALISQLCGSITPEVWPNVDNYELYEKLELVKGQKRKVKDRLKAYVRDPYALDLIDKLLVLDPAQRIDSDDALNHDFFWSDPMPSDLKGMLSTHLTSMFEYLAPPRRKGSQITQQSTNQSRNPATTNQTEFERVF
T2 sequence (O60563 whole entry partner): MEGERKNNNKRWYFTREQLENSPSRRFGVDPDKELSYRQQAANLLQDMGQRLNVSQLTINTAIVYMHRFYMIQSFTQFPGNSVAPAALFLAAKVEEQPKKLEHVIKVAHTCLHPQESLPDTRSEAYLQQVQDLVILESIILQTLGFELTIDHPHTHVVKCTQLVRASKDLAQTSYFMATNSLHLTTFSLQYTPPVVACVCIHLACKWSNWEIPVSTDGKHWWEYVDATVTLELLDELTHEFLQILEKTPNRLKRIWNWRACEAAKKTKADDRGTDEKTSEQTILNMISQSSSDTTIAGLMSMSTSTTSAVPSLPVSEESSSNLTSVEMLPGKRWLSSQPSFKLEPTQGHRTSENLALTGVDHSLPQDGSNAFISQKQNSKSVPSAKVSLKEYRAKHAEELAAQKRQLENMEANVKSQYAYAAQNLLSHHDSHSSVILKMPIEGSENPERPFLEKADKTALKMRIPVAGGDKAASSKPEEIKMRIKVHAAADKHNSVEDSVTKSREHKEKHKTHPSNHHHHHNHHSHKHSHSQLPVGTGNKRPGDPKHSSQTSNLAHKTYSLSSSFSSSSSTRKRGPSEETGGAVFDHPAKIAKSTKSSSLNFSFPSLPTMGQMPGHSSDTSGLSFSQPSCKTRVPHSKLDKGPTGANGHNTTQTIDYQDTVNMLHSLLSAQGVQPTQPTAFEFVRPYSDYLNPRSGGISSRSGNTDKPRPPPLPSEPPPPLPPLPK

## Cc1cc(C(=O)CN2CCCC2)c(C)n1-c1ccc(F)cc1 [IU1, 1-[1-(4-fluorophenyl)-2,5-dimethylpyrrol-3-yl]-2-pyrrolidin-1-ylethanone]
[1]
  Enhancement of BRD4 protein degradation effect of BRD4 PROTAC: concentration-dependent enhancement of the BRD4 protein degradation effect
[2]; HeLa, 75 μM of IU1 in combination
  Enhancement of protein degradation capability of CDK9 PROTAC through the DC50 value, versus vehicle control: about 5 times
[2]; HeLa, CDK9 PROTAC 100 nM, IU1 50 μM, 0, 1, 3, 6, 12, 24 h, FIG. 15
  Time-dependent effect on degradation effect of CDK9 PROTAC: accelerated the degradation effect of PROTAC
[2]; HeLa, CDK9 PROTAC 0.1-250 nM, especially high concentration of IU1, FIGS. 7A, 7B
  Enhancement of CDK9 protein degradation capability by CDK9 PROTAC versus vehicle control: highly enhanced the CDK9 protein degradation capability
[2]; HeLa, CDK9 PROTAC 5, 10, 20, 25 nM, IU1 10-100 μM, FIGS. 6A, 6B
  Enhancement of protein degradation effect, CDK9 PROTAC concentration fixed: the protein degradation effect was enhanced in an IU1 concentration-dependent manner at all concentrations
[2]; HeLa, IU1 50 μM with CDK9 PROTAC 1, 10, 25, 50, 100 nM, FIG. 4A
  CDK9 protein degradation effect of CDK9 PROTAC on combined treatment: substantially increased
[2]; HeLa, IU1 10, 25, 75, 100 μM, CDK9 PROTAC 1-100 nM, FIGS. 5A, 5B
  Enhancement of CDK9 degradation effect by CDK9 PROTAC, IU1 concentration fixed: enhanced the CDK9 degradation effect by CDK9 PROTAC in a PROTAC concentration-dependent manner at all concentrations except for the IU1 concentration at 10 μM
[2]; HeLa, maximum IU1 treatment concentration 50 μM, FIG. 4B
  CDK9 protein degradation on treatment with IU1 alone: degradation of CDK9 protein did not occur
[3]; IU1 10, 25, 75, 100 μM (all concentrations), CDK9 PROTAC 1-50 nM, FIGS. 10A, 10B
  Enhancement of CDK9 degradation effect by CDK9 PROTAC, IU1 concentration fixed: enhanced the CDK9 degradation effect by CDK9 PROTAC in a PROTAC concentration-dependent manner
[3]; IU1 and CDK9 PROTAC in combination, FIG. 9
  Degradation effect for CDK9 protein, combination versus CDK9 PROTAC alone: significantly increased
[4]
  Anticancer effect of CDK9 PROTAC (IC50, cell growth inhibition) with IU1 in combination: significantly increased
[5]
  Enhancement of SHP-2 protein degradation by SHP-2 PROTAC: SHP-2 PROTAC concentration-dependent enhancement of SHP-2 protein degradation

## CC(C)C[C@@H](C=O)NC(=O)[C@H](CC(C)C)NC(=O)[C@H](CC(C)C)NC(=O)OCc1ccccc1 [MG132, reference compound] (Cbz-Leu-Leu-Leu-aldehyde)
[2]
  CDK9 protein level when inhibitor is treated together with PROTAC and IU1: the level of CDK9 protein was recovered similar to the control group

## CO/C1=C\C(C)=C\[C@@H](C)[C@@H](O)[C@@H](C)C/C(C)=C/C=C/[C@H](OC)[C@@H]([C@@H](C)[C@@H](O)[C@H](C)[C@@]2(O)C[C@@H](O)[C@H](C)[C@@H](C(C)C)O2)OC1=O [bafilomycin A1, reference compound]
[2]
  CDK9 protein level when inhibitor is treated together with PROTAC and IU1: the degradation of CDK9 protein by the treatment with PROTAC and IU1 was still observed

## CS(=O)(=O)c1ccc(NC(=O)c2cc(C#N)c(Sc3c(Cl)cncc3Cl)s2)cc1 [P50429, reference compound]
[2]; HeLa, P50429 1 μM and 10 μM with CDK9 PROTAC, FIG. 17
  Enhancement of degradation effect of CDK9 PROTAC: did not enhance the degradation effect of PROTAC

## Cc1cc(C(=O)CN2CCCCC2)c(C)n1-c1ccc(Cl)cc1 [IU1-47, 1-[1-(4-chlorophenyl)-2,5-dimethyl-1H-pyrrol-3-yl]-2-(1-piperidinyl)ethanone]
[6]
  Colony formation of HeLa cancer cells, combination versus either alone: significantly inhibited
[2]; HeLa, 20 μM IU1-47 in combination with CDK9 PROTAC, FIG. 13C
  Enhancement of protein degradation of PROTAC from DC50 values, versus CDK9 PROTAC alone: about 6 times
[2]; HeLa, CDK9 PROTAC 5, 10, 20 nM, varying IU1-47, FIG. 14
  Enhancement of degradation of PROTAC, CDK9 PROTAC concentration fixed: significantly enhanced the degradation of PROTAC in a concentration-dependent manner
[2]; HeLa, FIG. 14
  CDK9 degradation on treatment with IU1-47 alone: did not result in any degradation of CDK9
[2]; HeLa, IU1-47 10 μM, 20 µM, 30 μM, CDK9 PROTAC 0.1-250 nM, FIGS. 13A, 13B
  Enhancement of protein degradation capability of CDK9 PROTAC versus vehicle: significantly enhanced at all concentrations of IU1-47
[2]; HeLa, IU1-47 20 μM, FIG. 17
  Enhancement of degradation effect of CDK9 PROTAC, comparison with P50429: significantly enhanced the degradation effect of PROTAC
[2]; HeLa
  Enhancement of degradation effect of CDK9 PROTAC, comparison with PR-619: significantly enhanced the degradation effect of PROTAC
[2]; in combination with PROTAC, see Example 6
  Targeted protein degradation capability of PROTAC, IU1-47 compared with IU1: more increased compared to when IU1 was treated in combination with PROTAC
[7]
  Migration or wound healing effect of HeLa cells, combination versus either alone: significantly inhibited

## N#CSc1cc(SC#N)c(N)nc1N [PR-619, reference compound]
[2]; HeLa
  Enhancement of degradation effect of CDK9 PROTAC, comparison with PR-619: did not show the effect of enhancing the protein degradation of PROTAC at all treatment concentrations

— US20240108612A1, “PHARMACEUTICAL COMPOSITION FOR ENHANCING ANTICANCER EFFECT OF PROTAC, INCLUDING IU1-SERIES UBIQUITIN-SPECIFIC PROTEASE 14 INHIBITOR AS ACTIVE INGREDIENT” (DAEGU GYEONGBUK INSTITUTE OF SCIENCE AND TECHNOLOGY, priority 2021, published 2024)
